Tests used:
[1] = tested on: durch Zahnextraktion entstandene Wunden; details: local application (Salbe, Lutschtabletten); cited from earlier work
[2] = tested on: experimentell gesetzte Wunden; details: intraperitoneal, 20 mg/kg Ratte; cited from earlier work
Endothelzellen = details: versus rats treated with isotonic saline (= 100 %); treatment as in Example 1
Method: Unter die Rückenhaut von 2 Monate alten Ratten mit einem Körpergewicht von 220 bis 270 g werden Polyvinylringe mit einem Basisdurchmesser von 19 mm unter sterilen Kautelen implantiert (Test nach RUDAS, modifiziert nach BECK, WIEGERS-HAUSEN und JUNG, Acta bio. med. Germ. 13, (1964)).
Der Ring liegt auf der Fascis der Rückenmuskulatur. Am Operationstag werden je 1,0 ml sterile, isotone Kochsalzlösung (Kontrolle) bzw. die gleiche Menge an Kochsalzlösung mit den darin enthaltenen Wirkstoffen appliziert. Die Wunde der Rückenhaut über dem Ring wird danach verschlossen. Am 2. bzw. am 2., 4. und 6. Tag post operationem (p. op.) erfolgen nochmalige Injektionen durch die Haut in den Ring, wobei jeweils 0,2 ml sterile, isotone Kochsalzlösung mit jeweils 20 % der am Operationstag gegebenen Wirkstoffmenge appliziert werden. Im Fall der Kontrolle erfolgt eine Injektion von 0,2 ml Kochsalzlösung ohne Wirkstoff.
Als Kontrolltiere dienten mit isotoner Kochsalzlösung behandelte Ratten, deren Zählwerte gleich 100 % gesetzt wurden. […] Das Vorgehen der Behandlung entspricht dem Beispiel 1.

Kapillaren = details: conclusion from morphometry (Tables 11 and 12); controls = 100 %
Source text: Mit Hilfe des Punktzählverfahrens (BUNTROCK et al: Exper. Pathol. 21 (1982) 62-67) wurden die prozentualen Volumenanteile der Kapillaren (VVCAP), unterteilt nach Endothelzellen (VVEC), Endothelzellkerne (VVNEC), Endothelsellzytoplasma (VVCYT) einerseits und Kapillarlumen (VVCAPL) andererseits bestimmt. Die Kontrollen wurden wiederum mit 100 % festgelegt.
Die Ergebnisse sind in der Tabelle 12 dargestellt.

ß-Alanyl-L-Histidin [L-Carnosin]
Wundheilung [1]: günstig beeinflussen | Wundheilung [2]: günstig beeinflussen

N-4-Nitrobenzylocarbonyl-lysyl-Prolin-Hydrochlorid [Lys[Z(NO2)]-Pro·HCl]
Anzahl der Endothelzellkerne der Kapillaren (Endothelzellen): signifikante Zunahme | Angiogenese fördernde Wirkung (Kapillaren): Angiogenese fördernde Wirkung
